{
  "source": "patent US10053422B2",
  "about": "“Compounds for the treatment of mTOR pathway related diseases” (Pitney Pharmaceuticals Pty Limited, priority 2012, dated 2018)",
  "key": {"OVCAR-3 cells": {"test_system": "OVCAR-3 cells", "assay": "SRB cell proliferation assay, OVCAR-3", "type": "cell-based, human", "procedure": "(§1) Cell proliferation was assessed using the sulforhodamine B (SRB) assay. Cells seeded in 96-well plate (2,000-3,000 cell/well) were treated with MPL (0, 1, 5, 10, 25, 50 and 100 μmol/L) for 72 h. Cells were then fixed, washed and stained with 100 μl of 0.4% (w/v) SRB dissolved in 1% acetic acid. Unbound dye was removed by five washes with 1% acetic acid before air drying. Bound SRB was solubilized with 100 μl of 10 mM Tris base (pH 10.5) and the absorbance read at 570 nm. Exactly the same procedure was used to assess MPL-SO2. Both agents were dissolved in ethanol and diluted with media to give the final concentrations required for cell culture assays."}, "SKOV-3 cells": {"test_system": "SKOV-3 cells", "assay": "SRB cell proliferation assay, SKOV-3", "type": "cell-based", "conditions": "Homo sapiens, SK-OV-3", "procedure": "as §1"}, "YOU cells (mesothelioma)": {"test_system": "YOU cells (mesothelioma)", "assay": "SRB cell proliferation assay, YOU", "type": "cell-based", "conditions": "for IC50: YOU", "procedure": "as §1"}, "[1]": {"test_system": "CHO (Chinese hamster ovarian cells)", "assay": "SRB cell proliferation assay, CHO", "type": "cell-based", "conditions": "Cricetulus griseus; CHO = Chinese hamster ovarian cells (Table 3); read-out: IC50 μM CHO", "procedure": "as §1"}, "[2]": {"test_system": "HEK (Human Embryonic Kidney)", "assay": "SRB cell proliferation assay, HEK", "type": "cell-based", "procedure": "as §1"}, "OVCAR-3 or A2780 cells": {"test_system": "OVCAR-3 or A2780 cells", "assay": "Colony formation assay", "type": "cell-based, human", "procedure": "FIG. 2A, FIG. 2B, and FIG. 2C show the effect of MPL on the colony formation activity of OVCAR-3 cells. Following incubation of cells with MPL (0, 5, 10 and 25 μmol/L) for 72 hours, cells were washed, transferred to agar plates, cultured with their regular growth medium and incubated under standard conditions for 2 weeks. Cells were then fixed with 100% methanol and stained with 1% crystal violet. Colonies (a cluster of cells greater than 50) were counted under a microscope (magnification ×5). The number of colonies counted for different experimental groups is expressed as a percentage of the control.\nFollowing incubation of cells with MPL (0, 5, 10, 25 μM) for 72 h, cells were washed and then transferred to agar plates, cultured with their regular growth medium and incubated under standard conditions for 2 weeks. Cells were then fixed with 100% methanol and stained with 1% crystal violet. Colonies (cluster of cells greater than 50) were counted under microscope (magnification ×5). Number of colonies counted for different experimental groups is expressed as % of control.\nFor colony formation assay, […], such as OVCAR-3 or A2780 cells, were plated in 100 mm Petri dishes and allowed to attach overnight. […] Colonies consisting of more than 50 cells were counted under an inverted microscope. […]"}, "c-Myc and cyclin D1": {"test_system": "c-Myc and cyclin D1", "assay": "Western blot of c-Myc and cyclin D1 in OVCAR-3 cells", "type": "cell-based, human", "conditions": "0, 5, 10, 15 and 25 μM MPL for 48 hours", "procedure": "In further experiments, after treatment with the indicated concentrations of MPL, cell lysates were prepared and probed with antibodies for c-Myc, cyclin D1, cyclin E, cdk2, cdk4, IGF-1R (Cell Signalling Technology), and (anta Cruz Biotechnology, Australia)."}, "[3]": {"test_system": "mTOR signaling in s.c. grown OVCAR-3 tumors", "assay": "Western blot of tumor lysates, mTOR related signaling", "type": "in vivo, female nude mice", "procedure": "Western blot analysis of tumor lysates prepared from s.c. grown OVCAR-3 tumors in female nude mice. Mice were treated from day 8 post cell inoculation i.p. for 3 weeks with MPL (25, 50 mg/kg suspended in 0.5% HPMC given i.p.) or the vehicle (0.5% HPMC). 24 hours after the last dose, tumors were excised and frozen at −80° C. […] Protein expression of mTOR together with c-Myc, cyclins D1 and E2 and CDKs 2 and 4 were suppressed in tumors excised from MPL treated mice.\nFemale nude mice (6 weeks old) were purchased from Biological Resources (Faculty of Medicine, University of New South Wales). An institutional animal ethics approval covered all procedures carried out on mice. Briefly, 2.5×10^6 log-phase growing OVCAR-3 cells were injected s.c. into the left flank of each mouse. Animals were weighed once weekly while their tumor volumes were determined twice weekly. Tumor growth was monitored by caliper measurements of orthogonal diameters, and the estimated tumor volume was calculated based on the formula ½ (Length×Width^2), where width is the shorter of the two orthogonal measurements. Based on institutional ethics approval, mice were euthanized before the tumor volume reached 500 mm^3. Treatment was initiated on day 8 after tumor cell injection when mice were randomized and assigned to treatment or the control group (6 per group). […]"}},
  "note": "Entries after “also recorded” stand apart in the source; their conditions may differ. Where two headings read alike, the source gives them in different places.",
  "data": [
    {"smiles": "C[C@](C#N)(COc1cc(C#N)ccc1C(F)(F)F)NC(=O)c1ccc(SC(F)(F)F)cc1", "note": "[MPL, N-[(1S)-1-Cyano-2-(5-cyano-2-trifluoromethyl-phenoxy)-1-methyl-ethyl]-4-trifluoromethylsulfanyl-benzamide]", "values": [
      {"measurement": "IC50", "setting": "OVCAR-3 cells; Homo sapiens, OVCAR-3, ovarian cancer, 72 h in vitro treatment, SRB assay (Table 1), read-out: IC50", "value": 6.3, "unit": "µM"},
      {"measurement": "IC50", "setting": "OVCAR-3 cells; OVCAR-3, human epithelial ovarian cancer (Table 3), read-out: IC50 μM OVCAR-3", "value": "7.9 ± 0.9", "unit": "µM"},
      {"measurement": "potency of MPL-(R) compared with MPL-(S)", "setting": "OVCAR-3 cells; results of Table 3", "value": "equipotent"},
      {"measurement": "IC50", "setting": "SKOV-3 cells; SKOV-3, ovarian cancer (Table 2), read-out: IC50 in suppressing proliferation", "value": "31.2 ± 0.76", "unit": "µM"},
      {"measurement": "IC50", "setting": "SKOV-3 cells; SKOV-3, ovarian cancer, 72 h, SRB assay (Table 1), read-out: IC50", "value": 29.3, "unit": "µM"},
      {"measurement": "IC50", "setting": "YOU cells (mesothelioma); mesothelioma (Table 2), read-out: IC50 in suppressing proliferation", "value": 23, "unit": "µM"},
      {"measurement": "IC50", "setting": "YOU cells (mesothelioma); mesothelioma, 72 h, SRB assay (Table 1), read-out: IC50", "value": 23.1, "unit": "µM"},
      {"measurement": "replication of YOU cells", "setting": "YOU cells (mesothelioma); highly resistant to chemotherapy", "value": "profoundly suppressed"},
      {"measurement": "IC50", "setting": "[1]", "value": 34.6, "unit": "µM"},
      {"measurement": "IC50", "setting": "[2]; HEK (Table 2), read-out: IC50 in suppressing proliferation", "value": "34.6 ± 0.86", "unit": "µM"},
      {"measurement": "IC50", "setting": "[2]; HEK, 72 h, SRB assay (Table 1), read-out: IC50", "value": 50.5, "unit": "µM"},
      {"measurement": "colony formation", "setting": "OVCAR-3 or A2780 cells; 72 h exposure (0, 5, 10, 25 μM), then 2 weeks drug free", "value": "profoundly hinders colony formation; also recorded: concentration-dependent inhibition of colony formation"},
      {"measurement": "clonogenic ability at higher concentrations", "setting": "OVCAR-3 or A2780 cells; higher concentrations of MPL, 72 h exposure", "value": "almost complete loss of clonogenic ability"},
      {"measurement": "c-Myc and cyclin D1 expression", "setting": "c-Myc and cyclin D1", "value": "down-regulation of c-Myc and cyclin D1 expression"},
      {"measurement": "tumor mTOR signaling (Western blot)", "setting": "[3]; 25, 50 mg/kg i.p. for 3 weeks, tumors excised 24 hours after last dose", "value": "suppression of mTOR signaling"},
      {"measurement": "tumor expression of cyclin D1", "setting": "[3]; MPL treated tumor bearing mice", "value": "dramatic down-regulation of cyclin D1"}
    ]}
  ]
}
